According to patent US10433544B2, “Herbicide” (University of Kentucky Research Foundation, priority 2017, dated 2019):

Columns and labels:
[1] = target: T1, sorbitol dehydrogenase (SDH) (Ovis aries, UniProt P07846); conditions: cited from earlier work
T1 sequence (P07846 1-354): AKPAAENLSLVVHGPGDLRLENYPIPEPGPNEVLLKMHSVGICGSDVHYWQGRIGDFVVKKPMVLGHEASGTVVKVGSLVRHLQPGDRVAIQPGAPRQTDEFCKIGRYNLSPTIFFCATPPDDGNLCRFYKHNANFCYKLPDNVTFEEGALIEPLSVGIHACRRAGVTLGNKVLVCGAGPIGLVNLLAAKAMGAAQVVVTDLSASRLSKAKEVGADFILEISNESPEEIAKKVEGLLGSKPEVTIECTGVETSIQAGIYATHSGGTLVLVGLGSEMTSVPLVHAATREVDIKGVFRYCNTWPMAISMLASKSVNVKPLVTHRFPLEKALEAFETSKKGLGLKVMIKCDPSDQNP

[2] = system: seed of alfalfa, dandelion and mixed grasses; assay: Seed germination in 300 mM solutions of fructose and polyols (FIG. 1); assay type: in vivo; conditions: ribitol/xylitol 150 mM + 150 mM, 8 days of incubation
Experimental: FIG. 1 includes a chart showing the effect of 300 mM solutions of fructose and polyols, and a 150 mM ribitol plus 150 mM xylitol (R+X) formulation on seed germination. Means±standard deviation are across alfalfa, dandelion and mixed grasses after 8 days of incubation.
Seed of several species were incubated with 300 mM solutions of fructose, inositol, sorbitol, ribitol, xylitol as well as a ribitol/xylitol solution.

[3] = system: growing plants of several weed species, including clover and pigweed; assay: Container studies, application to growing plants of several weed species (FIG. 3); assay type: in vivo, white clover and pigweed; conditions: for effect of application on growing plants: 300 mM total concentration, twice a week for 2 weeks; for rank order of the effect / severity of effect across species: 300 mM; for rank order of the effect: injury and death of growing plants; for severity of effect across species: container studies
Experimental: FIG. 3 includes images showing the effect of application of selected sugars and polyols twice a week for 2 weeks to white clover (A) and pigweed (B) plants.
(§1) In container studies, fructose, inositol, sorbitol, ribitol, xylitol as well as a ribitol/xylitol solution were applied at 300 mM total concentration to plants including white clover and pigweed. […] Other common sugars like glucose and fructose had no effect. […] Due to the desire for a broad spectrum herbicide that affected both seed germination and plant growth the most, and to keep the most expensive component, ribitol, to a low effective level, we concluded that the 150 mM ribitol/150 mM xylitol formulation (300 mM combined concentration) was the optimum for field tests.

[4] = system: wild type Arabidopsis seeds; assay: Seed germination with ribitol and SDH specific inhibitor (FIG. 8), Arabidopsis; assay type: in vivo; conditions: 150 mM ribitol, 0.5 mM CP-470711, six days
Experimental: (§2) FIG. 8 includes images showing the effect of blocking SDH activity with (A) water (B) 150 mM ribitol (C) the SDH-specific inhibitor CP-470711(Pfizer) and (D) ribitol+CP-470711 on sensitivity of seed germination of Wild Type Arabidopsis, tomato, and rice for 6 days.
(§3) The effect of blocking SDH activity with an SDH specific inhibitor was explored with application to wild type Arabidopsis, tomato and rice seeds for six days. […] Each compound alone at the same concentration had no effect.

[5] = system: seed of Dutch white clover; assay: Dutch white clover seed germination in xylitol, ribitol and ribitol/xylitol solutions (FIG. 2B); assay type: in vivo; conditions: total concentrations 100 to 400 mM, 10 days
Experimental: (§4) FIG. 2 includes images of grass (A) and Dutch white clover (B) seed germination after 10 days in solutions of xylitol alone, ribitol alone, and xylitol+ribitol, at total concentrations of 100 to 300 mM (grass) or 100 to 400 mM (clover).
(§5) Seed of turfgrass (FIG. 2A) and Dutch white clover (FIG. 2B) were incubated with solutions of xylitol, ribitol, and a ribitol/xylitol solution at 100 to 300 mM (A) or 100 to 400 mM (B). […] The clover seed was in developmental arrest at 400 mM ribitol and 300 mM ribitol/xylitol.

[6] = system: seed of turfgrass; assay: Turfgrass seed germination in xylitol, ribitol and ribitol/xylitol solutions (FIG. 2A); assay type: in vivo; conditions: total concentrations 100 to 300 mM, 10 days
Experimental: as §4, §5

[7] = system: dandelion plants; assay: Container studies, spraying of dandelion plants (FIG. 4); assay type: in vivo; conditions: 300 mm, ribitol+xylitol each at 150 mM, sprayed twice weekly for 2 weeks
Experimental: FIG. 4 includes images showing the effect of application of […] fructose, glucose, sorbitol, ribitol, xylitol, or ribitol+xylitol (each at 150 mM) twice weekly for 2 weeks on dandelion plants.
as §1

[8] = system: tomato seeds; assay: Seed germination with ribitol and SDH specific inhibitor (FIG. 8), tomato; assay type: in vivo; conditions: 150 mM ribitol, 0.5 mM CP-470711, six days
Experimental: as §2, §3

[9] = system: rice seeds; assay: Seed germination with ribitol and SDH specific inhibitor (FIG. 8), rice; assay type: in vivo; conditions: 150 mM ribitol, 0.5 mM CP-470711, six days
Experimental: as §2, §3

[10] = system: seed germination; conditions: when it cannot be metabolized properly; cited from earlier work
[11] = system: sdh-knockout mutant plants and Wild Type plants; conditions: 50 mM ribitol, cited from earlier work
[12] = system: seed germination of numerous plant species; assay: Ribitol toxicity effect on seed germination, numerous plant species; assay type: in vivo; conditions: ribitol with no adjuvant
Description: An increasing number of species have been identified as bearing the SDH gene and activity (Jia et al., […]), so most weed species could likely metabolize it.

With `SCc1ccccc1` [1-thio-1-phenylmethane] as the compound, how does the SDH inhibition [1] read?
Its SDH inhibition is “effective SDH inhibitors”.

With `SCCc1ccccc1` [1-thio-2-phenylethane] as the compound, how does the SDH inhibition [1] read?
The SDH inhibition was “effective SDH inhibitors”.

For `O=C(CO)[C@@H](O)[C@H](O)[C@H](O)CO` [fructose, reference compound], which “inhibition of seed germination” value [2] is on record?
The value was “only significantly inhibited by the ribitol/xylitol solution”.

What about the “effect of application on growing plants” value [3] of the same compound?
Its value is “no effect”.

For `O[C@H]1[C@H](O)[C@@H](O)[C@H](O)[C@@H](O)[C@H]1O` [inositol, reference compound], which “inhibition of seed germination” value [2] is on record?
Its value is “only significantly inhibited by the ribitol/xylitol solution”.

For `OC[C@@H](O)[C@@H](O)[C@@H](O)CO` [ribitol], which “inhibition of seed germination” value [2] is on record?
Its value is “only significantly inhibited by the ribitol/xylitol solution”.

What about the “effect on seed germination” value [4] of the same compound?
The value was “no effect”.

And the “concentration at which clover seed was in developmental arrest” value [5]?
The value was 400 mM.

What about the “effect of application on growing plants” value [3] of the same compound?
The value was “caused injury and death”.

What about the “rank order of the effect” value [3] of the same compound?
Its value is “sorbitol<xylitol≤ribitol”.

And the “concentration at which grass seed was significantly inhibited” value [6]?
Its value is 300 mM.

What about the “effect on dandelion plants” value [7] of the same compound?
The value was “death of plants”.

What about the “effect on seed germination” value [8] of the same compound?
The value was “no effect”.

And the “effect on seed germination” value [9]?
The value was “no effect”.

And the “effect on seed germination” value [10]?
Its value is “inhibited seed germination”.

What about the “effect of application on Wild Type plants” value ([11]; Wild Type plants) of the same compound?
Its value is “no effect”.

And the “effect of application on sdh-knockout mutant plants” value ([11]; well-watered sdh-knockout mutant plants)?
The value was “quick injury and eventual death”.

And the “ribitol concentration at which toxicity effect on seed germination occurred” value [12]?
Its value is ≥ 300 mM.

For `OC[C@@H](O)[C@@H](O)[C@H](O)[C@@H](O)CO` [sorbitol], which “inhibition of seed germination” value [2] is on record?
Its value is “only significantly inhibited by the ribitol/xylitol solution”.

What about the “effect of application on growing plants” value [3] of the same compound?
The value was “caused injury and death”.

And the “severity of effect across species” value [3]?
Its value is “caused damage”.

What about the “rank order of the effect” value [3] of the same compound?
The value was “sorbitol<xylitol≤ribitol”.

What does the source list for `OC[C@@H](O)[C@H](O)[C@@H](O)CO` [xylitol]?
inhibition of seed germination [2]: only significantly inhibited by the ribitol/xylitol solution; effect of application on growing plants [3]: caused injury and death; severity of effect across species [3]: caused damage; rank order of the effect [3]: sorbitol<xylitol≤ribitol; effect on dandelion plants [7]: death of plants
